In US20120100130A1, “Novel Receptor Hetero-Dimers/-Oligomers” (DIMERIX BIOSCIENCE PTY LTD., priority 2009, published 2012):

What was measured:
AngII treated monocytes = details: cited from earlier work
leukocyte infiltration = details: intraperitoneal AngII administration; cited from earlier work
CCR2b = molecular target: T1, CCR2b (Rattus norvegicus, UniProt O55193); details: AngII and high salt diet, cited from earlier work
T1 construct: host or cells: whole animals (in vivo)
T1 sequence (O55193 1-373): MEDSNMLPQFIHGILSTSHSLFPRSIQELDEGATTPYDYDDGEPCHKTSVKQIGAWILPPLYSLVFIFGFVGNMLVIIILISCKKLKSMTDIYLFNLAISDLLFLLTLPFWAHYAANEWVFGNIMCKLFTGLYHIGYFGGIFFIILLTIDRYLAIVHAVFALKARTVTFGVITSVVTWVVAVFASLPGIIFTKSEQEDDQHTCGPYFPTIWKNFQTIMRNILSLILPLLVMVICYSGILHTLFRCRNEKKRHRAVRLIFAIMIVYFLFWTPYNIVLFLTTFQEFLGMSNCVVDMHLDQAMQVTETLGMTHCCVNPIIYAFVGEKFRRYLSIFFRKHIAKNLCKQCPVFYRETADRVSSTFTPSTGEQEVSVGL

AT1R [1] = details: apolipoprotein E-deficient mice, cited from earlier work
[2] = system: glomerular endothelial cells; details: AngII treatment, rat glomerular endothelial cells; cited from earlier work
renal tissue = details: rats, 3 days of AngII treatment; cited from earlier work
[3] = system: renal cells and monocytes; details: cited from earlier work
AT1R [4] = molecular target: T2, AT1R (Homo sapiens, UniProt P30556); experiment: eBRET control, cells expressing AT1R/Rluc8 and barr2/Venus with pcDNA3; type: cell-based; details: 10^−7M MCP1; HEK293FT cells expressing AT1R/Rluc8 and barr2/Venus with pcDNA3
T2 construct: expressed in transfected cells; host or cells: HEK293FT
T2 sequence (P30556 1-359): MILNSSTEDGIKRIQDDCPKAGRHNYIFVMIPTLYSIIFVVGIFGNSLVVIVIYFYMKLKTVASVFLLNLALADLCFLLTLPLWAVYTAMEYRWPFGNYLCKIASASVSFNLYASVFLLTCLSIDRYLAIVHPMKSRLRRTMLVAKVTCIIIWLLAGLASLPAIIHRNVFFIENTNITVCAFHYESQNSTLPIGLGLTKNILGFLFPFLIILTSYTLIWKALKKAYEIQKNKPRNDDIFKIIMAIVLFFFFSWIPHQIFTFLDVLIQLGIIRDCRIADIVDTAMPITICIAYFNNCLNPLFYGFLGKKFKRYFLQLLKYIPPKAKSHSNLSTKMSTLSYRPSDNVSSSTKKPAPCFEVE
Description: (§1) HEK293FT cells were seeded in 6-well plates at a density of approximately 630,000 cells/well and maintained at 37° C., 5% CO2 in Complete Media (DMEM containing 0.3 mg/ml glutamine, 100 IU/ml penicillin and 100 μg/ml streptomycin (Gibco)) supplemented with 10% fetal calf serum (FCS; Gibco). Transient transfections were carried out 24 h after seeding using GeneJuice (Novagen) according to manufacturer instructions. 24 h post-transfection, cells were washed with PBS, detached using 0.05% trypsin/0.53 mM EDTA, resuspended in HEPES-buffered phenol red free Complete Media containing 5% FCS and added to a poly-L-lysine-coated white 96-well microplate (Nunc). 48 h post-transfection, eBRET assays were carried out following pre-incubation of cells with EnduRen™ (Promega) at a final concentration of 30 μM, at 37° C., 5% CO2 for 2 h. BRET measurements were taken at 37° C. using the Victor Light plate reader with Wallac 1420 software (Perkin-Elmer). Filtered light emissions were sequentially measured for 2 s in each of the ‘donor wavelength window’ (400-475 nm) and ‘acceptor wavelength window’ (520-540 nm).
The BRET signal observed between interacting proteins is normalized by subtracting the background BRET ratio. […]
In parallel, eBRET signals were measured from cells transiently expressing AT1R/Rluc8 and barr2/Venus with pcDNA3 following treatment with 10^−7M monocyte chemotactic protein-1 (MCP1).

AT2R = molecular target: T3, AT2R (Homo sapiens, UniProt P50052); experiment: eBRET control, cells expressing AT2R/Rluc8 and barr2/Venus with pcDNA3; type: cell-based; details: 10^−7M MCP1; HEK293FT cells expressing AT2R/Rluc8 and barr2/Venus with pcDNA3
T3 construct: expressed in transfected cells; host or cells: HEK293FT
T3 sequence (P50052 1-363): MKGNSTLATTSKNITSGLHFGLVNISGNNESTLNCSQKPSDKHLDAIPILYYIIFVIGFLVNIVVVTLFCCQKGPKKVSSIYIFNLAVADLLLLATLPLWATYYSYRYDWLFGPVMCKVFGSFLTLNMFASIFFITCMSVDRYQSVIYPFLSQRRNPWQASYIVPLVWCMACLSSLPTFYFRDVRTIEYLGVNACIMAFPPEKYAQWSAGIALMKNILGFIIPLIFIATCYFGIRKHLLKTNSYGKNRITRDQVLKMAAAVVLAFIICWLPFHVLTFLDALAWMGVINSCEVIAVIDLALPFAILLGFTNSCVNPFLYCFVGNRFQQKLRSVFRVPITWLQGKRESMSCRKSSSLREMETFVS
Description: as §1
The BRET signal observed between interacting proteins is normalized by subtracting the background BRET ratio. […] In the following examples, the second calculation will be used and the signal is described as the ‘ligand-induced BRET ratio’.

Compound: CCCCc1nc(Cl)c(CO)n1Cc1ccc(-c2ccccc2-c2nn[nH]n2)cc1 [Losartan]
- AngII-mediated upregulation of MIP-1 and interleukin-8 chemokines (AngII treated monocytes): inhibited
- Leukocyte infiltration (leukocyte infiltration): inhibited

Compound: O=C1Nc2ccccc2C2(CCN(CCc3ccc(C(F)(F)F)cc3)CC2)O1 [RS102895]
- BP (CCR2b; with versus without CCR2b antagonist): comparable
- renal protection in hypertension (CCR2b): protects the kidney in hypertension by reducing the inflammatory response

Compound: C[C@H](N[C@@H](CCc1ccccc1)C(=O)O)C(=O)N1[C@H](C(=O)O)C[C@@H]2CCC[C@@H]21 [Ramiprilat]
- AngII-induced upregulation of MIP-1 (AngII treated monocytes): suppressed

Compound: CCCCC1=NC2(CCCC2)C(=O)N1Cc1ccc(-c2ccccc2-c2nnn[nH]2)cc1 [irbesartan]
- lesion size (AT1R [1]; after 12 weeks): reduced
- levels of MCP-1 and MIP-1α mRNA expression (AT1R [1]): significantly lower

Compound: angiotensin II (DRVYIHPF; Angiotensin-2; UniProt P01019 25-32, looked up) [AngII]
- mRNA and protein expression of the chemokine RANTES [2]: increase
- renal expression of TNFα and MCP-1 (renal tissue): increased
- CC and CXC chemokine levels (leukocyte infiltration): increase

Compound: angiotensin III (RVYIHPF; Angiotensin-3; UniProt P01019 26-32, looked up) [AngIII]
- MCP-1 mRNA and protein expression ([3]; AngIII treatment of renal cells and monocytes): increase
- transcription factor NF-κB ([3]; AngIII treatment): activated

Compound: monocyte chemotactic protein-1 [MCP1]
- ligand-induced BRET ratio (AT1R [4]): did not result in an increase in ligand-induced BRET ratio
- ligand-induced BRET ratio (AT2R): did not result in an increase in ligand-induced BRET ratio
